Columns and labels:
[1] = molecular target: ERβ LBD (amino acids 257–502) (Homo sapiens, UniProt Q92731); assay: Differential HDX mass spectrometry of ERβLBD with and without ligand; format: binding; details: for Average difference in deuterium levels, LOOP 271-294 / Average difference in deuterium levels, LOOP 271-295 / Average difference in deuterium levels, LOOP 273-294 / Average difference in deuterium levels, LOOP 273-295 / Average difference in deuterium levels, LOOP 274-295 / Average difference in deuterium levels, LOOP 282-294 / Average difference in deuterium levels, LOOP 282-295: ERβLBD:ligand 1:10, average of 1, 30, 60, 900, 4200 sec, negative = protection
ERβ [2] = molecular target: T1, ERβ (Homo sapiens, UniProt Q92731); assay: Cell based functional assay, ERE-luciferase in HEK 293 cells, agonist mode; details: for ERβ Agonist % stim: % stimulation versus DES maximum response; for EC50: read-out: ERβ Agonist EC50, ERE-luciferase, 24 h
ER β = details: ERβ versus ERα; cited from earlier work
ERβ [3] = molecular target: T1, ERβ; assay: Cell based functional assay, ERE-luciferase in HEK 293 cells, antagonist mode; details: for ERβ Antag % inhib.: HEK 293 cells, ERE-luciferase
ERα = molecular target: T2, ERα (Homo sapiens, UniProt P03372); assay: ER competition binding assay
T2 sequence (P03372 1-595): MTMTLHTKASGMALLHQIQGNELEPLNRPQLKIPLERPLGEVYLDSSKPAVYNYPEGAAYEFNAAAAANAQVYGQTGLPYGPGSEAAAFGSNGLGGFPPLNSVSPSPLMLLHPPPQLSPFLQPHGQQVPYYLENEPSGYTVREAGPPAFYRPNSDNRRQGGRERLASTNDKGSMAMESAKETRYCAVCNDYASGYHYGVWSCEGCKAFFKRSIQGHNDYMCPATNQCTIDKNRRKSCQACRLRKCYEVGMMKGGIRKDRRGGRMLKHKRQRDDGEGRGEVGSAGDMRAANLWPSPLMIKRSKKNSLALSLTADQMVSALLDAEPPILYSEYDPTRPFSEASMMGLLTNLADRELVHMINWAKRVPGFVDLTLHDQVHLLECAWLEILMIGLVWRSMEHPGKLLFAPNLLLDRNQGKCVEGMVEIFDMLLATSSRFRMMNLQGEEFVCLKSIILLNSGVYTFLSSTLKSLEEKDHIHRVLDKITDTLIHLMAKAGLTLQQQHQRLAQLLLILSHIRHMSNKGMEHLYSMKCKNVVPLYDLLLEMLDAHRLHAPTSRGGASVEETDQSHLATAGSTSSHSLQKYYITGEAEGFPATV

ERβ [4] = molecular target: T1, ERβ; assay: ER competition binding assay

T1 sequence (Q92731 whole entry): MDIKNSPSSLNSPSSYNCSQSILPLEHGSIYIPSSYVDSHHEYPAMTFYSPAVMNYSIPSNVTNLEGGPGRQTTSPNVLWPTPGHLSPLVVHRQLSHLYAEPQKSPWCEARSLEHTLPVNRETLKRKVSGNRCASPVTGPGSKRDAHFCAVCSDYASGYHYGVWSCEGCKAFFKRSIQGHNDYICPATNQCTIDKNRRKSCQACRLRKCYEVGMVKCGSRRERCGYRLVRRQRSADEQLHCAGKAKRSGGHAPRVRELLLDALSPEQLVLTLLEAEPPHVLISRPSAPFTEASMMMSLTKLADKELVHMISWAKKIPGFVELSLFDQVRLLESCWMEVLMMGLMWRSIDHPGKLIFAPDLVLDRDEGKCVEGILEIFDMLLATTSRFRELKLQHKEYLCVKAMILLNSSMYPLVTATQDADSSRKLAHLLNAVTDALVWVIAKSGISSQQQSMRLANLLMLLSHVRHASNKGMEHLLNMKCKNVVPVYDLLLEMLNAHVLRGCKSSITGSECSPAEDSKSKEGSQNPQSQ
ERβ LBD (amino acids 257–502), sequence (Q92731 257-502): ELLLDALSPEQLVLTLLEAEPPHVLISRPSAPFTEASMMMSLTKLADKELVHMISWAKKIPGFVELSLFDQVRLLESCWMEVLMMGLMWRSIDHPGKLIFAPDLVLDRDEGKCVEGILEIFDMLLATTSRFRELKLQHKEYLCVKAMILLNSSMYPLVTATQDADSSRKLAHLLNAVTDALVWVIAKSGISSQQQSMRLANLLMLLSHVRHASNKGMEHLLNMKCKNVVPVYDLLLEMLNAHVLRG

ERβ Antag % inhib. (ERβ [3]) [%] | Ki (ERα) [µM] | Ki (ERβ [4]) [µM] | IC50 (ERβ [3]) [µM] | Structure (SMILES) | Average difference in deuterium levels, LOOP 271-294 [1] [%] | Average difference in deuterium levels, LOOP 271-295 [1] [%] | Average difference in deuterium levels, LOOP 273-294 [1] [%] | Average difference in deuterium levels, LOOP 273-295 [1] [%] | Average difference in deuterium levels, LOOP 274-295 [1] [%] | Average difference in deuterium levels, LOOP 282-294 [1] [%] | Average difference in deuterium levels, LOOP 282-295 [1] [%] | Protection to exchange, β-sheet1/β-sheet2 region ([1]; amino acid 355–362 of ERβLBD, p<0.001, positive = protection) | Protection (stabilization) of helix 3 to H/D exchange, ERβ ([1]; helix 3, amino acids 296–309 in ERβ, positive = protection) [%] | ERβ Agonist % stim (ERβ [2]) [%] | Binding to ER β tighter than to ERα (ER β) | EC50 (ERβ [2]) [µM]
 |  |  |  | CC/C(=C(\c1ccc(O)cc1)c1ccc(OCCN(C)C)cc1)c1ccccc1 [4-hydroxy tamoxifen, 4-hydroxytamoxifen] | −8 | −11 | −12 | −11 | −12 | −10 | −11 | ~ 20% | 13 |  |  | 
 |  |  |  | CC/C(=C(/CC)c1ccc(O)cc1)c1ccc(O)cc1 [DES, Diethylstilbestrol] | −10 | −10 | −12 | −10 | −10 | −8 | −10 |  |  | 97 |  | 
 |  |  |  | C[C@]12CC[C@@H]3c4ccc(O)cc4CC[C@H]3[C@@H]1CC[C@@H]2O [Estradiol, 17β-estradiol] | −6 | −7 | −9 | −6 | −8 | −7 | −6 |  |  | 100 |  | 
 |  |  |  | O=c1c(-c2ccc(O)cc2)coc2cc(O)cc(O)c12 [Genistein, genistein] |  |  |  |  |  |  |  |  |  |  | approximately 10 fold | 
103 |  |  |  | Oc1ccc2c(c1)CC[C@H](c1ccccc1)[C@@H]2c1ccc(OCCN2CCCC2)cc1 [Lasodoxifene, lasofoxifene] | −11 | −11 | −12 | −9 | −12 | −9 | −9 |  |  |  |  | 
 |  |  |  | O=C(c1ccc(OCCN2CCCCC2)cc1)c1c(-c2ccc(O)cc2)sc2cc(O)ccc12 [Raloxifene, raloxifene] | −7 | −7 | −9 | −7 |  | −6 | −7 |  |  |  |  | 
 |  |  |  | O=C(c1ccc(O)cc1)c1c(-c2ccc(O)cc2)sc2cc(O)ccc12 [compound 88074] | −7 | −8 | −9 | −7 | −8 | −7 | −7 |  |  | 104 |  | 0.232
108 | 0.00032 | 0.0013 | 0.204 | O=C(c1ccc(OCCN2CCCC2)cc1)c1c(-c2ccc(O)cc2)sc2cc(O)ccc12 [compound 117018] | −7 | −7 | −8 | −7 | −8 | −7 | −8 |  |  |  |  | > 10

Structure (SMILES) | ERβ Antag % inhib. (ERβ [3]) [%] | Ki (ERα) [µM] | Ki (ERβ [4]) [µM] | IC50 (ERβ [3]) [µM] | Average difference in deuterium levels, LOOP 271-294 [1] [%] | Average difference in deuterium levels, LOOP 271-295 [1] [%] | Average difference in deuterium levels, LOOP 273-294 [1] [%] | Average difference in deuterium levels, LOOP 273-295 [1] [%] | Average difference in deuterium levels, LOOP 274-295 [1] [%] | Average difference in deuterium levels, LOOP 282-294 [1] [%] | Average difference in deuterium levels, LOOP 282-295 [1] [%] | Protection to exchange, β-sheet1/β-sheet2 region ([1]; amino acid 355–362 of ERβLBD, p<0.001, positive = protection) | Protection (stabilization) of helix 3 to H/D exchange, ERβ ([1]; helix 3, amino acids 296–309 in ERβ, positive = protection) [%] | ERβ Agonist % stim (ERβ [2]) [%] | Binding to ER β tighter than to ERα (ER β) | EC50 (ERβ [2]) [µM]
C[C@]12CC[C@@H]3c4ccc(O)cc4C[C@@H](CCCCCCCCC[S+]([O-])CCCC(F)(F)C(F)(F)F)[C@H]3[C@@H]1CC[C@@H]2O (stereo partly drawn) [ICI, ICI 182780] | 109 |  |  |  | −9 | −10 | −11 | −10 | −11 | −9 | −10 |  |  |  |  | 
